Measured values reported in patent US20150368617A1, “METHOD FOR FORMING ENDOTHELIAL CELLS” (Korea Advanced Institute of Science and Technology (KAIST), priority 2012, published 2015).

How the values were obtained:
αMHC GFP+CMs = assay: Sorted αMHC-GFP+ CMs in feeder-free condition; assay type: cell-based, mouse; settings: Y27632 10 μM
Method: Analysis and sorting for CMs were performed at day 10.5. We harvested differentiated Flk1+ MPCs on OP9 cells with 0.25% trypsin-EDTA or dissociation buffer (Invitrogen). Cardiac troponin-T (cTnT)+ and ┌ smooth muscle actin (SMA)+ cells were analyzed after permeabilization using Cytofix/Cytoperm solution (BD Biosciences) for 15 min. After permeabilization, the cells were incubated for 30 min with anti-mouse cTnT (NeoMarkers) monoclonal antibody. After washing in 10% Perm/Wash buffer (BD Biosciences), the cells were incubated for 10 min with Alexa Fluor® 647 anti-mouse IgG (Invitrogen). After washing in 10% Perm/Wash buffer (BD Biosciences), the cells were incubated for 30 min with Cy3-conjugated anti-┌ SMA (clone 1A4, Sigma). We sorted out CMs using ┌ MHC GFP. Sorted Flk1+ MPCs on OP9 cells were harvested with 0.25% trypsin-EDTA or dissociation buffer (Invitrogen) and cells were washed using phosphate buffered saline/10% FBS twice. Dead cells were excluded using 7-aminoactinomycin D (Invitrogen). Then, we sorted out ┌ MHC GFP+CMs and plated on to 0.1% gelatin coated dish in the differentiation medium. The medium was changed every 2 days. Analyses and sorting were performed by FACS Aria II (Beckton Dickinson). Data were analyzed using FlowJo Version 7.5.4 software (TreeStar). […]

ICAM2+ ECs = assay: Expansion of purified ICAM2+ ECs for 2 days in 2D Matrigel system; assay type: cell-based, mouse
Method: FIGS. 14A-14G. ROCK suppression continuously promotes the expansion of ECs. (FIG. 14A) ICAM2+ ECs were further incubated with PBS (Control), Y27632 (10┌ M), VEGF-A (50 ng/ml; VA) or Y27632 (10┌ M) plus VEGF-A (50 ng/ml) for 2 days, and analyses were performed at day 8.5. (FIG. 14B) Immunofluorescence images showing CD144+ EC colonies, ┌ SMA+MCs, and DAPI+ nuclei. Scale bars represent 100┌ m. (FIG. 14C) Representative FACS analysis of CD31+/CD144+ ECs. (FIG. 14D) % of CD31+/CD144+ EC population. Each group, n=3. *p<0.01 versus Control. (FIG. 14E) Relative cell number of ICAM2+ ECs. Each group, n=3. *p<0.01 versus Control; ^#p<0.01 versus VEGF-A. (FIG. 14F) Relative population of CD31+/CD144+ ECs. Population of CD31+/CD144+ ECs grown without VEGF-A and Y27632 was regarded as 100%. Each group, n=3. *p<0.01 versus Control; ^#p<0.01 versus VEGF-A. (FIG. 14G) % of adherent ICAM2+ECs onto plate at 6 hrs. Each group, n=3. *p<0.05 versus VEGF-A.
E14tg2a ESC cell line was a generous gift from Dr. Jun K. Yamashita (Kyoto University), and R1 ESC cell line was purchased from American Type Cell Culture. Mouse iPSC derived from FVB strain was a generous gift from Drs. Hyun-Jai Cho and Hyo-Soo Kim (Seoul National University Hospital). […]

## C[C@@H](N)[C@H]1CC[C@H](C(=O)Nc2ccncc2)CC1 [Y27632]
αMHC GFP+CMs; day 12.5
  self-beating CMs compared to control: much more self-beating CMs
αMHC GFP+CMs; day 14.5, confluent state
  area of self-beating CMs compared control: ~2.8 fold
ICAM2+ ECs; day 8.5, agent alone, ˜30% without either agent
  decrease of CD31+/CD144+ EC population from the initial population of ˜90%: ~22%
ICAM2+ ECs; day 8.5, compared to Control without VEGF-A and Y27632
  increase of total cell number: ~1.8 fold
